Experimental data reported in US8133998B2, “Bicyclic pyrimidine derivatives as calcium channel blockers” (Zalicus Pharmaceuticals, Ltd., priority 2007, dated 2012).
pKd: −log10 of the molar value.

Columns and labels:
[1] = molecular target: T1, human α1G T-type channels (Homo sapiens, UniProt O43497); assay: T-type calcium channel block, whole cell patch clamp in HEK cells; type: cell-based; settings: HEK cells stably expressing human α1G; measured at 1 μM drug; mainly non-inactivated protocol
T1 construct: expressed in transfected cells; host or cells: HEK 293
In short: (§1)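 Whole-cell patch clamp on HEK293 cells stably expressing the channel; holding −110 mV, 1-s prepulse −100 mV (resting block) or ~−85 mV (inactivated), test pulse −40 mV for 50 ms. Compounds in external solution with 0.1–0.01% DMSO, gravity-applied; Kd from block at 1 μM or 200 nM.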

[2] = molecular target: T2, human α1H T-type channels (Homo sapiens, UniProt O95180); assay: as above; type: cell-based; settings: HEK cells stably expressing human α1H; measured at 1 μM drug; mainly non-inactivated protocol
T2 construct: expressed in transfected cells; host or cells: HEK 293
In short: as §1

[3] = molecular target: T3, human α1I T-type channels (Homo sapiens, UniProt Q9P0X4); assay: as above; type: cell-based; settings: HEK cells stably expressing human α1I; measured at 1 μM drug; mainly non-inactivated protocol
T3 construct: expressed in transfected cells; host or cells: HEK 293
In short: as §1

[4] = tested on: T-type over L-type channels; settings: cited from earlier work
[5] = tested on: spinal nerve ligation model of neuropathic pain; settings: rats; cited from earlier work

T3 sequence (Q9P0X4 whole entry): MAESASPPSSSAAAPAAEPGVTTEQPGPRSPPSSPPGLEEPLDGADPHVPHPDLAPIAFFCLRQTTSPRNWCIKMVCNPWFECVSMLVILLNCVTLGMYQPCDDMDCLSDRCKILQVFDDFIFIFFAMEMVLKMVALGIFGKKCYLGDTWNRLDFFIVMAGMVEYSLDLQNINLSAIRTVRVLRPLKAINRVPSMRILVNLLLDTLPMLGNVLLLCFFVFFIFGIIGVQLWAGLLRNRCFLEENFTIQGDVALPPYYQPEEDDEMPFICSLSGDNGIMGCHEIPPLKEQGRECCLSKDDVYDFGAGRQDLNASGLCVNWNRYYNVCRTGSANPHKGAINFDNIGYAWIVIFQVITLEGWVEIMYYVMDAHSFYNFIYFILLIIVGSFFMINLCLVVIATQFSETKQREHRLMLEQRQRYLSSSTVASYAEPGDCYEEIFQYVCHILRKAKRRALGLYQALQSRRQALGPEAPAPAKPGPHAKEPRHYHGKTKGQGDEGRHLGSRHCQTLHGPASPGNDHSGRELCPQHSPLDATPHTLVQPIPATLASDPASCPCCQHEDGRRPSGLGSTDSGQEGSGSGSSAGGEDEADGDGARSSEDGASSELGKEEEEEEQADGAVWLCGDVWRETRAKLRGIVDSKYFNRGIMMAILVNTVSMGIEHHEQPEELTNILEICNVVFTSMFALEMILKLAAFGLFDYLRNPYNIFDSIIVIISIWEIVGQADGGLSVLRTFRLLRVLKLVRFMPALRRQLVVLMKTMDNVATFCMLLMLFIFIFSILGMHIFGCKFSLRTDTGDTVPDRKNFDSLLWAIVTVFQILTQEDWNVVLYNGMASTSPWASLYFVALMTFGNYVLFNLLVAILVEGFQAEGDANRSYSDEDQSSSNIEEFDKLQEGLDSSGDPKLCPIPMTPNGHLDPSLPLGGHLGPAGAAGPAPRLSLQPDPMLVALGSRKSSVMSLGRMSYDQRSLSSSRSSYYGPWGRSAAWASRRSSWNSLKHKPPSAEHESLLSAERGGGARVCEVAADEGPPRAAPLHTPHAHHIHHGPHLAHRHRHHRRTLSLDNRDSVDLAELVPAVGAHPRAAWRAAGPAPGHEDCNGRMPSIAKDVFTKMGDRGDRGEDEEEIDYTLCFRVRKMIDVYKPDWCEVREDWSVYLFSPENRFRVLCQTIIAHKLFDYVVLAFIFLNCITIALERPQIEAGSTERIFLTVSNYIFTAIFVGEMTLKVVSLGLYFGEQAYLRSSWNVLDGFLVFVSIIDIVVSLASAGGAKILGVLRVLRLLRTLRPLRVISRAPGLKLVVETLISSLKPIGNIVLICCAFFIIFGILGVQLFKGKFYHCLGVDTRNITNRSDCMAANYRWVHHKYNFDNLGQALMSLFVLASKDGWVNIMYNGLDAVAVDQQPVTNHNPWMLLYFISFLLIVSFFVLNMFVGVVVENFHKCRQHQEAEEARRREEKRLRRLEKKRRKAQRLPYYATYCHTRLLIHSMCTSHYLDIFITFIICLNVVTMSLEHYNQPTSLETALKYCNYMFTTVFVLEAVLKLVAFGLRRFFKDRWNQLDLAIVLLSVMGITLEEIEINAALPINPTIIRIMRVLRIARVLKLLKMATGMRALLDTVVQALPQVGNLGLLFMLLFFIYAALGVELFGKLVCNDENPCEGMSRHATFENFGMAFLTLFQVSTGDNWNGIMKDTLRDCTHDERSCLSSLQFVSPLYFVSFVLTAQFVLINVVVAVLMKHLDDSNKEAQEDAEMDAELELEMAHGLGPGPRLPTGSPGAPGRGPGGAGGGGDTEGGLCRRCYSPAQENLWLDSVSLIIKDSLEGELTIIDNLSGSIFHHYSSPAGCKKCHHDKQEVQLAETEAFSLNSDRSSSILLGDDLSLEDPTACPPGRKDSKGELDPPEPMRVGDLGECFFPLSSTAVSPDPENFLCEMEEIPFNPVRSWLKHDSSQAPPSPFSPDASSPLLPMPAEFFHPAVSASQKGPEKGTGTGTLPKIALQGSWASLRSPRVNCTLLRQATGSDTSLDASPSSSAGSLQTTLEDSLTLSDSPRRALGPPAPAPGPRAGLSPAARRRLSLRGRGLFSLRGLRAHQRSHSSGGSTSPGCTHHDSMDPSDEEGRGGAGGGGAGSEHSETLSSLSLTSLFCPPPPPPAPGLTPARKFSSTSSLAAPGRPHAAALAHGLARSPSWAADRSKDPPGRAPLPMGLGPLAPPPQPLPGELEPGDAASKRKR
T1 sequence (O43497 whole entry): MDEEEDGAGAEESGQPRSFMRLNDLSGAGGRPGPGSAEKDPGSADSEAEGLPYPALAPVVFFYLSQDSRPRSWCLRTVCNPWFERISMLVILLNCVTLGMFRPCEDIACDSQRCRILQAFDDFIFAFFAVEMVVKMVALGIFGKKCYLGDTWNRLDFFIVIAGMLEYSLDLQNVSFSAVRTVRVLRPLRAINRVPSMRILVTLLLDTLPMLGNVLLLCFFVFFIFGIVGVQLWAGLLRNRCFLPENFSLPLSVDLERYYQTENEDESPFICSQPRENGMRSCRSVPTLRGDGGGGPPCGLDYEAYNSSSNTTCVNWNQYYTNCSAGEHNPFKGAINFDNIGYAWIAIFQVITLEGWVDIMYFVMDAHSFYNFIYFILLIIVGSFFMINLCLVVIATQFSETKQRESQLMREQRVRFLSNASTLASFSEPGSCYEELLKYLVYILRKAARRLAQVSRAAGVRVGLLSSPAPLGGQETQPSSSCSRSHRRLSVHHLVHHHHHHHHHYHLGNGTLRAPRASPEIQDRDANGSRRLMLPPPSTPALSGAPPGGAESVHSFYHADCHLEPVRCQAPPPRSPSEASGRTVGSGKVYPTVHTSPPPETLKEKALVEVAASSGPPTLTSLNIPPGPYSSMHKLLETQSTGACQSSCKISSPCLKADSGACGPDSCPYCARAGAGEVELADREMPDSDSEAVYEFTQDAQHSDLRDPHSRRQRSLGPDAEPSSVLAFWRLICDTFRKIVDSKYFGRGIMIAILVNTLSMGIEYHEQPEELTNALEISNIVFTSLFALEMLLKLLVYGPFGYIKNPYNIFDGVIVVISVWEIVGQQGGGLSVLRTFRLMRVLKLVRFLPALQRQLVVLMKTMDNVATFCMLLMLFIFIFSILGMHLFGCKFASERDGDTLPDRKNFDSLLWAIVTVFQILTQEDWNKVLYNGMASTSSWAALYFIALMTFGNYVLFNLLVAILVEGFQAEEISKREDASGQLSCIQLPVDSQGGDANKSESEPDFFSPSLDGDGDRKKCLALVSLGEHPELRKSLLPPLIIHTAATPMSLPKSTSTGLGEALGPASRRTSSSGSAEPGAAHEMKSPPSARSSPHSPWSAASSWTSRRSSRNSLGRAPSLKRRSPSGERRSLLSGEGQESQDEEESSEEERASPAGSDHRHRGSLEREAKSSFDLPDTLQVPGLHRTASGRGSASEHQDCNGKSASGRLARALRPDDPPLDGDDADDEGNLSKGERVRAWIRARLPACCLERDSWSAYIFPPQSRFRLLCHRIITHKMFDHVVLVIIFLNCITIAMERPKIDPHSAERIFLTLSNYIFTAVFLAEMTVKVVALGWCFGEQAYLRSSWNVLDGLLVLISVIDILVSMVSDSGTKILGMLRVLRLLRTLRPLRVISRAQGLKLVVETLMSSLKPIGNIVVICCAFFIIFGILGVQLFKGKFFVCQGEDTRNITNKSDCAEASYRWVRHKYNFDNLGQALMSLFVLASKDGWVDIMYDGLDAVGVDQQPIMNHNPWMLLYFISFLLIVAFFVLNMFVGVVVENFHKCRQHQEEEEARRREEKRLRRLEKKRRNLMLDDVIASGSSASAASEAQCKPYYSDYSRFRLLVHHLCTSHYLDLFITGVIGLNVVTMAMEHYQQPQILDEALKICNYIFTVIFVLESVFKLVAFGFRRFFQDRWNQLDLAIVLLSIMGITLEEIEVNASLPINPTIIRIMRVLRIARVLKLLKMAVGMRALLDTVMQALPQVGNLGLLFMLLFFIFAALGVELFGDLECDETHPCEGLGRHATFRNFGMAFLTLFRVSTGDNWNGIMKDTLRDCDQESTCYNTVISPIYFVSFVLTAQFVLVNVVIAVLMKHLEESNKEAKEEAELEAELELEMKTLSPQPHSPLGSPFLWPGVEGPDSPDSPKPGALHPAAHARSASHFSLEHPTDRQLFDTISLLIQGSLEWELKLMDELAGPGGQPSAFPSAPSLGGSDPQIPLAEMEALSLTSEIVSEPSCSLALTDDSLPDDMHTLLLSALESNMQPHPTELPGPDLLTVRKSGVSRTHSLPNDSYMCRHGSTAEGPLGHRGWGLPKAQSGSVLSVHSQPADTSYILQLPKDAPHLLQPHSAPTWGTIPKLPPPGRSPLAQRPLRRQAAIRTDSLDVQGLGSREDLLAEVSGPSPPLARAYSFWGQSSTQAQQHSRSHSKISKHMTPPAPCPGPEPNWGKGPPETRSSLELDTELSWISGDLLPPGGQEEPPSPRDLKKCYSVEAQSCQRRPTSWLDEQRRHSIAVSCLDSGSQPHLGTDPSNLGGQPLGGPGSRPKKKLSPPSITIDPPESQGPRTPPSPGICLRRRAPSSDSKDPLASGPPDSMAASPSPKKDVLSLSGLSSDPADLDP

| SMILES | pKd [1] | pKd [2] | pKd [3] | selective for T-type over L-type channels [4] | anti-hyperalgesic activity in the spinal nerve ligation model of neuropathic pain [5] |
| --- | --- | --- | --- | --- | --- |
| CNC(=O)c1sc2ncn(CC(=O)Nc3cc(C(F)(F)F)cc(C(F)(F)F)c3)c(=O)c2c1C [Compound 66, 3-(2-(3,5-bis(trifluoromethyl)phenylamino)-2-oxoethyl)-N,5-dimethyl-4-oxo-3,4-dihydrothieno[2,3-d]pyrimidine-6-carboxamide] | 6.46 | 5.12 | 5.98 |  |  |
| Cc1c(C(=O)N2CCN(c3ccc(Cl)c(Cl)c3)CC2)sc2ncn(CC(=O)N3CCCC3)c(=O)c12 [Compound 135, 6-(4-(3,4-dichlorophenyl)piperazine-1-carbonyl)-5-methyl-3-(2-oxo-2-(pyrrolidin-1-yl)ethyl)thieno[2,3-d]pyri-midin-4(3H)-one] | 5.00 | 6.48 | 5.86 |  |  |
| COCC(=O)O[C@]1(CCN(C)CCCc2nc3ccccc3[nH]2)CCc2cc(F)ccc2[C@@H]1C(C)C [Mibefradil] |  |  |  | 10-30 fold | anti-hyperalgesic activity |
| CCC1(C)CC(=O)NC1=O (stereo not drawn) [ethosuximide] |  |  |  |  | anti-hyperalgesic activity |

More lines, main results first:

| pKd [1] | pKd [2] | pKd [3] | SMILES | selective for T-type over L-type channels [4] | anti-hyperalgesic activity in the spinal nerve ligation model of neuropathic pain [5] |
| --- | --- | --- | --- | --- | --- |
| 6.70 | 6.15 | 7.10 | Cc1c(C(=O)N2CCN(c3ccccc3F)CC2)sc2ncn(CC(=O)Nc3cc(C(F)(F)F)cc(C(F)(F)F)c3)c(=O)c12 [Compound 64, N-(3,5-bis(trifluoromethyl)phenyl)-2-(6-(4-(2-fluorophenyl)piperazine-1-carbonyl)-5-methyl-4-oxothieno[2,3-d]pyrimidin-3(4H)-yl)acetamide] |  |  |
| 6.64 | 5.56 | 6.15 | Cc1c(C(=O)N2CCCCC2)sc2ncn(CC(=O)Nc3cc(C(F)(F)F)cc(C(F)(F)F)c3)c(=O)c12 [Compound 69, N-(3,5-bis(trifluoromethyl)phenyl)-2-(5-methyl-4-oxo-6-(piperidine-1-carbonyl)thieno[2,3-d]pyrimidin-3(4H)-yl)acetamide] |  |  |
| 5.84 | 6.66 | 5.06 | Cc1c(C(=O)N2CCN(c3cccc(Cl)c3)CC2)sc2ncn(CC(=O)N3CCCC3)c(=O)c12 [Compound 73, 6-(4-(3-chlorophenyl)piperazine-1-carbonyl)-5-methyl-3-(2-oxo-2-(pyrrolidin-1-yl)ethyl)thieno[2,3-d]pyrimidin-4(3H)-one] |  |  |
| 6.44 | 6.74 | 5.30 | Cc1c(C(=O)N2CCN(c3cccc(Cl)c3)CC2)sc2ncn(CC(=O)Nc3ccc(F)cc3F)c(=O)c12 [Compound 140, 2-(6-(4-(3-chlorophenyl)piperazine-1-carbonyl)-5-methyl-4-oxothieno[2,3-d]pyrimidin-3(4H)-yl)-N-(2,4 difluorophenyl)acetamide] |  |  |
